# Columns and labels:
# Type in all cases: cell-based
# human PBMCs [1] = experiment: Cytokine/chemokine secretion in human PBMCs (MSD V-PLEX)
# Description: Human buffy coats from healthy individuals were obtained from the Faculty of Medicine of Johannes Gutenberg University, Mainz and used to isolate peripheral blood mononuclear cells (PBMCs) on a Ficoll-Paque™ PLUS (Cytiva, Marlborough, MA, USA) density gradient. In preparation for mRNA transfection, cryopreserved PBMCs were thawed and seeded into 96-well plates at a density of 5×10^5 cells per well in 190 μL RPMI medium supplemented with 1% non-essential amino acids (NEAA), 1% sodium pyruvate and 10% Fetal Bovine Serum (Merck, Germany). Cells were maintained at 37° C. with 5% CO2 until transfection with 0.5, 1.5, 5.0 and 15 μg/ml lipoplex-formulated EPO mRNA (LPX-RNA), as described in Kranz, L. M., et al. (2016) Nature, 534, 396-401. The complexed RNA (10 μl per well) was added in triplicates and supernatants were collected at 24 h after transfection to perform single cell cytotoxicity assay and to measure the cytokine/chemokine profile. To determine the cell viability and the production of selected cytokines/chemokines, supernatants from human PBMCs transfected with LPX-RNA were subjected to XTT cytotoxicity test using Cell Proliferation Kit II (Sigma-Aldrich) and cytokine/chemokine profile analysis using the Meso Scale Discovery V-PLEX Custom Human Biomarkers Proinflammatory and Chemokine Panel (Meso Scale Diagnostics—MSD, Rockville, MD, USA) according to the manufacturer's instructions, respectively. In regards of cytokine/chemokine profile analysis, a sample dilution of 1:5 (supernatant:MSD diluent) was used in each experiment. The levels of IL-6 (Interleukin 6), TNF-α (Tumor necrosis factor alpha), IL-1 (Interleukin 1 beta), IFN-γ (Interferon gamma), MCP-1 (Monocyte Chemoattractant Protein-1), […] (Macrophage inflammatory protein 1 beta) and IL-10 (Interleukin 10) were quantified 24 h after the mRNA transfection. […] This low immunogenicity can be directly attributed to the nucleoside modifications incorporated into the mRNA. To illustrate this, cells treated with lipid-complexed U-containing mRNA capped with compound I′-1, CC114 and CC413 induced much higher proinflammatory cytokine/chemokine responses even at their lowest dose (0.5 μg/ml) when compared to m1Ψ-modified mRNA (FIG. 6).
# To test the effect of the cap types and mRNA 5′end on immunogenicity in human peripheral blood monocyte cells (PBMCs) we compared changes in levels of cytokines and chemokines after application of Lipoplex (LPX)-formulated EPO mRNAs. First, we compared the impact of m1Ψ-mRNA capped with I′-6 containing a UAGU 5′end vs. CC413 (AGAAU 5′end) (FIG. 12). […] Second, we compared capped EPO uRNA with I′-6 or I′-1 (FIG. 14). In this case both mRNAs had the same TAGT 5′end. […] Thus, benefit of I′-6 in decreasing the immunogenicity and thus increasing safety was found when I′-6 was used.
# [2] = test system: human primary hepatocytes; experiment: EPO secretion in human primary hepatocytes transfected with TransIT-EPO mRNA (ELISA)
# Description: To measure the translational efficiency of EPO mRNA capped with compound I′-1, compound I′-6, CC114, and CC413 in vitro, human primary hepatocytes were seeded into 96-well plates at a density of 2.5×10^4 cells per well and were transfected with mRNA samples (0.1 μg) complexed with TransIT reagent (Mirus Bio, Madison, WI, USA) in a final volume of 200 μL in InVitroGRO CP Medium (Sigma-Aldrich) supplemented with Thorpedo Antibiotic Mix (Sigma-Aldrich). To quantify EPO levels, the supernatant was collected at 1, 2, 3, 4, 5 and 6 day after transfection and EPO levels were analyzed by mouse Erythropoietin DuoSet ELISA kit (R&D Systems, Minneapolis, MN, USA) according to the manufacturer's instructions.
# In each in vivo experiment in order to measure the translational efficiency and to determine the functionality of EPO mRNA capped with I′-1, I′-2, I′-3, I′-5, I′-6, I′-9, I′-12, I′-13, I′-16, CC114, and CC413 in vivo, female BALB/c mice from Jackson Laboratory (Bar Harbor, ME, USA) at the age of eight to ten weeks were used for in accordance with federal policies on animal research (Ethics approval number: G19-12-074). In each case, mice (n=3/group) were injected intravenously (i.v.) with 3 μg TransIT-complexed (Mirus Bio) EPO mRNAs in a final volume of 200 μL Dulbecco's modified Eagle medium (DMEM). Mice used as controls were injected with TransIT-reagent diluted in DMEM but without RNA. To measure hematocrits and EPO levels in the individual mice that were injected with EPO mRNA capped with I′-6, I′-1, CC114, and CC413 and complexed with TransIT-reagent, 18 μL of blood was collected at the indicated times (FIG. 8B) and centrifuged in Drummond microcaps glass capillary tubes (20 μl volume, Merck, Germany) as described (19). After determination of the hematocrit, capillary tubes were snapped open, and the plasma was collected to measure EPO levels and analyzed for mouse Erythropoietin DuoSet ELISA kit (R&D Systems) according to the manufacturer's instructions. […] EPO RNA containing m1Ψ modifications translated 2-3-fold, 5-fold, and 10-fold more than U-containing mRNAs at 6-24, 48 and 72 hours after injections, respectively. (FIG. 8A). […] To address translation of I′-6-capped mRNA in human primary hepatocytes, EPO level was measured from supernatants transfected using 0.1 μg/well TransIT-formulated I′-6- or CC114-capped uRNA (FIG. 13).
# To test if various uridine (U) or pseudouridine (Ψ) derivatives of cap analogues can improve translation in human primary hepatocytes, we first measured EPO secretion after application of EPO-encoding Ψ-mRNA capped with compounds described herein analog bearing pseudouridine (I′-3) or CC413 (no modification). […] In addition, all tested modification bearing caps led to increase in EPO secretion at 24 h and 48 h when compared to the unmodified I′-1 (FIG. 16).
# human PBMCs [3] = experiment: XTT cytotoxicity test of PBMCs transfected with LPX-formulated EPO mRNA; conditions: 24 h, up to 1 μg/well mRNA
# Description: Human buffy coats from healthy individuals were obtained from the Faculty of Medicine of Johannes Gutenberg University, Mainz and used to isolate peripheral blood mononuclear cells (PBMCs) on a Ficoll-Paque™ PLUS (Cytiva, Marlborough, MA, USA) density gradient. In preparation for mRNA transfection, cryopreserved PBMCs were thawed and seeded into 96-well plates at a density of 5×10^5 cells per well in 190 μL RPMI medium supplemented with 1% non-essential amino acids (NEAA), 1% sodium pyruvate and 10% Fetal Bovine Serum (Merck, Germany). Cells were maintained at 37° C. with 5% CO2 until transfection with 0.5, 1.5, 5.0 and 15 μg/ml lipoplex-formulated EPO mRNA (LPX-RNA), as described in Kranz, L. M., et al. (2016) Nature, 534, 396-401. The complexed RNA (10 μl per well) was added in triplicates and supernatants were collected at 24 h after transfection to perform single cell cytotoxicity assay and to measure the cytokine/chemokine profile. […] The levels of IL-6 (Interleukin 6), TNF-α (Tumor necrosis factor alpha), IL-1 (Interleukin 1 beta), IFN-γ (Interferon gamma), MCP-1 (Monocyte Chemoattractant Protein-1), […] (Macrophage inflammatory protein 1 beta) and IL-10 (Interleukin 10) were quantified 24 h after the mRNA transfection. […]
compound,measurement,setting,value
"COC1C(OP(=O)(O)OC[C@H]2O[C@@H](c3cn(C)c(=O)[nH]c3=O)C(O)C2O)[C@@H](COP(=O)(O)OP(=O)([O-])OP(=O)(O)OC[C@H]2O[C@@H](n3c[n+](C)c4c(O)nc(N)nc43)C(O)C2OC)O[C@H]1n1cnc2c(N)ncnc21 (stereo partly drawn) [I′-6, m^7G(^3′-OMe)pppA(2′-OMe)pm^1Ψ]","cytokines (IL-6, TNF-α, IL-1β, IFN-γ), compared with I′-1","human PBMCs [1]; EPO uRNA, same TAGT 5′end, 24 h after application",significantly lower
same,"increase in levels of proinflammatory cytokines and chemokines, compared with CC413","human PBMCs [1]; LPX-formulated EPO mRNA, across the concentrations tested",less of an increase
same,"MIP-1β, compared with CC413","human PBMCs [1]; LPX-m1Ψ-mRNA, 0.333 and 1 μg/well (1.7 and 5 μg/ml)",decrease
same,"cytokines (IL-6, TNF-α, IL-1, IFN-γ), compared with CC413","human PBMCs [1]; LPX-m1Ψ-mRNA, 1 and 3 μg/well (5 and 15 μg/ml)",significant decrease
same,translation (EPO secretion) compared to CC413,"[2]; 0.1 μg/well TransIT-EPO mRNA, 24 hrs",higher translation
same,"EPO secretion, I′-6- vs CC114-capped uRNA","[2]; 0.1 μg/well TransIT-formulated uRNA, 24 h, 48 h and 144 h",Increased secretion of EPO
same,"level of secreted EPO compared to other caps (I′-9, I′-12, I′-16)",[2]; 24 h,increased level
same,translation compared to CC413,[2]; m1Ψ-mRNA context,lower translation at later time points but in close to comparable translation
same,toxic effect on cell viability (XTT),human PBMCs [3],no toxic effect

# Reference: patent publication US20260109727A1, “RNA CONSTRUCTS AND USES THEREOF” (BioNTech SE, priority 2022, published 2026)
